Measurements taken from ChEMBL document CHEMBL1201862, “PubChem BioAssay data set” (2004).
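Dose response: 5 concentrations. Exposure: 48 h. Format: 96-well plates. Endpoint: linear interpolation; highest concentration if not reached. The concentration for 50% growth inhibition is given as GI50.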 The source made the active and inactive calls. Rule as the data show it: active = GI50 up to about 1.1 µM and inactive = higher.

Experiments:
Assay in all cases: NCI tumour cell line growth inhibition, 48 h
786-0 = test system: 786-0
BT-549 = test system: BT-549
COLO 205 = test system: COLO 205
DU-145 = test system: DU-145
EKVX = test system: EKVX
Hs-578T = test system: Hs-578T
K562 = test system: K562
KM12 = test system: KM12
M14 = test system: M14
MDA-MB-231 = test system: MDA-MB-231
OVCAR-8 = test system: OVCAR-8
SF-268 = test system: SF-268
SK-MEL-28 = test system: SK-MEL-28
SK-MEL-2 = test system: SK-MEL-2
SN12C = test system: SN12C
SNB-19 = test system: SNB-19
SNB-75 = test system: SNB-75
TK-10 = test system: TK-10
HCC 2998 = test system: HCC 2998

Measured: GI50

O=C(O)CN(CC(=O)O)c1ccccc1
inactive: 786-0 > 100 µM | BT-549 > 100 µM | COLO 205 > 100 µM | DU-145 > 100 µM | EKVX > 100 µM | Hs-578T 80 µM | K562 35 µM | KM12 60.1 µM | M14 > 100 µM | MDA-MB-231 92.3 µM | OVCAR-8 > 100 µM | SF-268 > 100 µM | SK-MEL-28 > 100 µM | SK-MEL-2 33.2 µM | SN12C > 100 µM | SNB-19 > 100 µM | SNB-75 > 100 µM | TK-10 > 100 µM

COc1ccccc1NC(=S)Nc1cc(C)ccn1
inactive: 786-0 > 100 µM | BT-549 > 100 µM | COLO 205 > 100 µM | DU-145 > 100 µM | EKVX > 100 µM | Hs-578T > 100 µM | K562 > 100 µM | KM12 > 100 µM | M14 > 100 µM | MDA-MB-231 20 µM | OVCAR-8 > 100 µM | SF-268 91 µM | SK-MEL-28 > 100 µM | SK-MEL-2 > 100 µM | SN12C > 100 µM | SNB-19 > 100 µM | SNB-75 > 100 µM | TK-10 > 100 µM

Oc1c(Cl)cc2cc1-c1cc(cc(Cl)c1O)CCc1c(cc(Cl)c(O)c1Cl)-c1cc(Cl)c(c(Cl)c1O)/C=C\2
inactive: 786-0 8.36 µM | BT-549 16 µM | COLO 205 8.24 µM | DU-145 9.18 µM | HCC 2998 6.98 µM | Hs-578T 11.1 µM | K562 > 50 µM | KM12 7.76 µM | M14 7.23 µM | OVCAR-8 7.91 µM | SF-268 8.43 µM | SK-MEL-28 7.08 µM | SK-MEL-2 8.81 µM | SNB-19 11.6 µM | SNB-75 9.02 µM

O=C(O)c1ccn(-c2cccc(-n3ccc(C(=O)O)n3)n2)n1
inactive: 786-0 > 100 µM | BT-549 > 100 µM | COLO 205 > 100 µM | DU-145 > 100 µM | EKVX > 100 µM | Hs-578T > 100 µM | K562 > 100 µM | KM12 > 100 µM | M14 > 100 µM | MDA-MB-231 > 100 µM | OVCAR-8 > 100 µM | SF-268 > 100 µM | SK-MEL-28 > 100 µM | SK-MEL-2 > 100 µM | SN12C > 100 µM | SNB-19 > 100 µM | SNB-75 > 100 µM | TK-10 > 100 µM

COc1ccc(COCCOCc2nc(C#N)c(N)o2)cc1
inactive: 786-0 > 100 µM | BT-549 > 100 µM | COLO 205 > 100 µM | DU-145 > 100 µM | EKVX > 100 µM | HCC 2998 > 100 µM | K562 > 100 µM | KM12 > 100 µM | M14 > 100 µM | MDA-MB-231 > 100 µM | OVCAR-8 > 100 µM | SF-268 > 100 µM | SK-MEL-28 > 100 µM | SK-MEL-2 > 100 µM | SN12C > 100 µM | SNB-75 > 100 µM | TK-10 > 100 µM

N=c1oc2c(Br)cc(Br)cc2cc1C(=O)Nc1ccccn1
inactive: 786-0 36.5 µM | BT-549 > 100 µM | COLO 205 > 100 µM | DU-145 81.5 µM | EKVX > 100 µM | HCC 2998 > 100 µM | Hs-578T 64.4 µM | K562 > 100 µM | KM12 56.5 µM | M14 56 µM | MDA-MB-231 > 100 µM | OVCAR-8 45.9 µM | SF-268 78.9 µM | SK-MEL-28 > 100 µM | SK-MEL-2 30.1 µM | SN12C > 100 µM | SNB-19 > 100 µM | SNB-75 > 100 µM

COC(CO[Si](C)(C)N[Si](C)(C)OCC(OC)c1ccccc1)c1ccccc1 (configuration not stated)
inactive: 786-0 > 100 µM | BT-549 > 100 µM | COLO 205 > 100 µM | DU-145 > 100 µM | EKVX > 100 µM | HCC 2998 > 100 µM | K562 > 100 µM | KM12 > 100 µM | M14 > 100 µM | OVCAR-8 > 100 µM | SK-MEL-28 > 100 µM | SK-MEL-2 > 100 µM | SN12C > 100 µM | SNB-19 > 100 µM | SNB-75 > 100 µM | TK-10 > 100 µM

CCOP(=O)(OCC)/C(=C\n1c(=S)[nH]c2cc(C)ccc21)C(=O)OC
inactive: 786-0 > 100 µM | BT-549 > 100 µM | COLO 205 > 100 µM | DU-145 > 100 µM | EKVX 45.8 µM | HCC 2998 > 100 µM | KM12 > 100 µM | M14 > 100 µM | MDA-MB-231 > 100 µM | OVCAR-8 > 100 µM | SF-268 > 100 µM | SK-MEL-28 > 100 µM | SK-MEL-2 > 100 µM | SN12C > 100 µM | SNB-19 > 100 µM | SNB-75 > 100 µM | TK-10 > 100 µM
